Experimental data as given in patent US6492330B1, “Antiangiogenic drugs” (National Institute of Immunology, priority 1996, dated 2002).
Non-standard residues stand in square brackets, D forms with d. No end group written: not given here.

What was measured:
[1] = system: human umbelical vein endothelial cells (HUVEC); details: 10^−9M octreotide; cited from earlier work
[2] = system: vascular cells from explants of rat aorta; details: 10^−8M octreotide; cited from earlier work
aortic rings in fibrin = details: 10^−8M octreotide; cited from earlier work
ECV304 = experiment: Tube-like-structure (TLS) formation on Matrigel; format: cell-based; details: N = 10^−8 M for VIP2, BOM1, SP1, VIP3, SOM2, 10^−7M for VIP1, 10^−9M for SOM1, 24 hours
Method: Matrigel (350 ul) was placed into each well of a 24-well culture plate at 4° C. and was allowed to polymerize by incubation at 37° C. for 30 min. ECV304 (1.5×10^4) were seeded on the Matrigel in 500 ul DMEM supplemented with 10% FBS. MuJ-7 at four different concentrations of 0.25×, 0.5×, ×, & 5.0× were added and. the plate incubated at 37° C. for 24 hour. “×” denotes normal concentration of MuJ-7 where molar concentration of individual peptides was 10^−8 M for VIP2, BOM1, SP1, VIP3 and SOM2 and 10^−7 M for VIP1 and 10^−9 M for SOM1. […] Percent inhibition in tube area was determined with reference to untreated cells.
Matrigel (350 ul) was placed into each well of a 24-well culture plate at 4° C. and was allowed to polymerize by incubation at 37° C. for 30 min. ECV304 (1.5×10^4) were seeded on the Matrigel in 500 ul DMEM supplemented with 10% FBS. […] Percent inhibition in tube length was determined with reference to untreated cells.
Matrigel (350 ul) was placed into each well of a 24-well culture plate at 4° C. and was allowed to polymerize by incubation at 37° C. for 30 min. ECV304 (1.5×10^4) were seeded on the Matrigel in 500 ul DMEM supplemented with 10% FBS. Individual peptides of the composition MuJ-7 at three different concentrations each of N/10, N, and 10N were added and the plate incubated at 37° C. for 24 hours. […] Percent inhibition in tube length was determined with reference to Control. Similarly, three different concentrations of N/10, N, and 10N of MuJ-7 were added to the well and the plate incubated at 37° C. for 24 hours. Percent inhibition in tube length was determined with reference to Control as described previously (Table 10).

ECV.304 cells = experiment: MTT assay, inhibition of proliferation of endothelial cells ECV.304; format: cell-based; details: 72 hours (Table 1)
EaHy.926 = experiment: MTT assay, inhibition of proliferation of endothelial cells EaHy.926; format: cell-based; details: 72 hours
Method: 150 μl of medium was added to the wells of a 96-well tissue culture plate (Nunc, Denmark) followed by 30 μl of cell suspension. The plate was left in incubator (37° C., 5% CO2) overnight. Each of the seven peptides of the combination MuJ-7 were added at three molar concentrations of 10^−7M, 10^−8M and 10^−9M. 20 μl of MuJ-7 at three concentrations of N/10, N and 10N was added to marked wells of the 96-well plate. The value of N for each of the individual peptides was 10^−8M for VIP2, BOM1, SP1, VIP3, and SOM2 and 10^−7M for VIP1, and 10^−9M for SOM1. Each concentration was plated in triplicate. 20 μl of medium alone was added to control wells while wells without cells served as blanks. A total volume of 200 μl was ensured in each well and the plate was left in an incubator (37° C., 5% CO2). After 72 hours of incubation an MTT assay was performed and percentage inhibition in proliferation of treated cells was calculated with respect to control cells.

[3] = system: endothelial cells ECV.304; experiment: Migration assay across 8 μm polycarbonate filter transwell inserts; format: cell-based; details: N = 10^−8 M for VIP2, BOM1, SP1, VIP3, SOM2, 10^−7M for VIP1, 10^−9M for SOM1, 24 hours
VIP-receptor complex = details: n=6; K-A is the dissociation constant of VIP-receptor complex; cited from earlier work

| Compound | reduction of mean uptake of 3H-thymidine compared with controls [1] | inhibition of proliferation compared with controls [2] | reduction of sprouting compared with controls (aortic rings in fibrin) | Percent inhibition in TLS activity (TLS length) (ECV304; 10N) | Percent inhibition in TLS activity (TLS length) (ECV304; N/10) | Percent inhibition in TLS activity (TLS length) (ECV304; N) | Percent Inhibition Proliferation (ECV.304 cells; ECV.304, peptide 10^−7M) | Percent Inhibition Proliferation (ECV.304 cells; ECV.304, peptide 10^−8M) | Percent Inhibition Proliferation (ECV.304 cells; ECV.304, peptide 10^−9M) | Percent Inhibition Proliferation (EaHy.926; EaHy.926, peptide 10^−7M) | Percent Inhibition Proliferation (EaHy.926; EaHy.926, peptide 10^−8M) | Percent Inhibition Proliferation (EaHy.926; EaHy.926, peptide 10^−9M) | Percent inhibition in migration ([3]; 10N) | Percent inhibition in migration ([3]; 100N) | Percent inhibition in migration ([3]; 1000N) | Percent inhibition in migration ([3]; N/10) | Percent inhibition in migration ([3]; N/100) | Percent inhibition in migration ([3]; N) | pKa value for VIP-receptor complex (VIP-receptor complex) |
| --- | --- | --- | --- | --- | --- | --- | --- | --- | --- | --- | --- | --- | --- | --- | --- | --- | --- | --- | --- |
| C[C@@H](O)[C@@H]1NC(=O)[C@H](CCCCN)NC(=O)[C@@H](Cc2c[nH]c3ccccc23)NC(=O)[C@H](Cc2ccccc2)NC(=O)[C@@H](NC(=O)[C@H](N)Cc2ccccc2)CSSC[C@@H](C(=O)N[C@H](CO)[C@@H](C)O)NC1=O [octreotide] | 37% | 32.6% | 33.2% | – | – | – | – | – | – | – | – | – | – | – | – | – | – | – | – |
| LMYPTYLK [VIP2] | – | – | – | 3.3% | 0.0% | 1.0% | 24% | 25% | 22% | 32% | 28% | 42% | 88.15% | 92.90% | 0.00% | 91.75% | 0.00% | 89.05% | – |
| [dR]PKP[dF]Q[dW]F[dW]LL-NH2 [SP1] | – | – | – | 3.0% | 14.4% | 8.9% | 18% | 24% | 22% | 49% | 32% | 37% | 92.65% | 78.10% | 18.10% | 94.10% | 13.97% | 90.50% | – |
| vasoactive intestinal polypeptide [VIP] | – | – | – | – | – | – | – | – | – | – | – | – | – | – | – | – | – | – | 8.10+/−0.10 |
